For one compound, IC50 and DC50 results are on record in US12410155B2, “Salt form and crystal form of tetrahydrocyclohepta indazole compound” (Zhejiang Yangli Pharmaceutical Technology Co., Ltd., priority 2021, dated 2025).

Read-outs that look alike come from different tables or passages of the source.

A word on the IC50: it is the point on the concentration scale where inhibition reaches its midpoint. High values mean a need for much substance, low ones inhibition by little substance.

Experiment [1] deals with HCC1428 cells. Briefly: HCC1428 cell proliferation inhibition assay (CTG). Particulars: Homo sapiens, HCC1428, 168 h, 7 days. It is filed as cell-based. On the procedure:
(5) HCC1428 and MDA-MB-134VI Cell Proliferation Inhibition Assay
The initial concentration of the compound of formula (I) was set at 200 nM, followed by 4-fold serial dilutions to achieve ten concentration gradients.
• 1) HCC1428 cells were cultured in RPMI 1640 complete growth medium containing 10% FBS and 1% PenStrep. • 2) When the cells in a T75 culture flask reached 80-90% cell fusion, they were digested with trypsin and collected. The cell passages used were the seventh generation for the first independent experiment and the thirteenth generation for the second independent experiment. • 3) The cells were centrifuged at 1000 rpm, resuspended in complete medium, and counted. The cell densities were 1.30×10^6 cells/mL for the first experiment and 9.50×10^5 cells/mL for the second experiment, with viability both exceeding 95%. • 4) Cell suspensions were prepared in complete medium at a density of 1.25×10^4 cells/mL for both experiments. […] 100 μL of CellTiter-Glo® reagent was added to each well. The plate was incubated at room temperature in the dark for 30 minutes. • 8) Luminescence values were read using a BMG plate reader.
The IC50 (half-maximal inhibitory concentration) of the compound was obtained using the following nonlinear fitting formula: […]

Experiment [2] concerns the target T1, ERα (Homo sapiens, UniProt P03372).
T1 construct: degradation effects on ERα in various breast cancer cell lines; endogenous in cells; host or cells: MCF-7, T-47D, CAMA-1
T1 sequence (P03372 1-595): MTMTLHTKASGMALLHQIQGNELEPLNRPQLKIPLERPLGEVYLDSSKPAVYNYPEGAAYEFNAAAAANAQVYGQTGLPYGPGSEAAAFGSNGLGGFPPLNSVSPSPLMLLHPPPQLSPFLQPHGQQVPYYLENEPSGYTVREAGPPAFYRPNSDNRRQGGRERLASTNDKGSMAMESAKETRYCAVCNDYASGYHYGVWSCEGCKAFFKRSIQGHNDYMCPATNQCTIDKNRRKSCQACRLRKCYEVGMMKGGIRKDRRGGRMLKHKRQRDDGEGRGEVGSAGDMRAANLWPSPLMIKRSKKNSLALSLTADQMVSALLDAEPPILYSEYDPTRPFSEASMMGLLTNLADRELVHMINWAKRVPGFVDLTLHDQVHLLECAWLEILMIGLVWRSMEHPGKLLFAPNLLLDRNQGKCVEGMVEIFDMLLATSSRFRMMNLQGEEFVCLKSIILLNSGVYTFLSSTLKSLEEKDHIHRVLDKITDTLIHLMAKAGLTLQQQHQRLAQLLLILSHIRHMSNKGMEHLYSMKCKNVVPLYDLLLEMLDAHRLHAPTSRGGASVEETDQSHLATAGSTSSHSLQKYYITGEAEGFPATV
Briefly: ERα degradation assay (ICW) in MCF-7, T-47D and CAMA-1 cells. Particulars: 4 hours, read-out: IC50 (nM), degradation effect on ERα. Type of experiment: cell-based. On the procedure: (3) ERα Degradation Assay in MCF-7, T-47D, and CAMA-1 Cells
• 1) The complete culture medium was aspirated from the culture flask, followed by the addition of an appropriate amount of trypsin for rinsing. The trypsin solution was then aspirated to remove residual serum. • 2) Subsequently, an appropriate amount of trypsin was added for a second rinse and aspirated. The culture flask was placed in an incubator for 2-3 minutes, then removed, and gently agitated to detach the cells. • 3) The cells were resuspended in fresh complete culture medium and counted using a cell counter. • 4) The cell suspension was prepared according to the required plating density. • 5) A volume of 30.0 μL of the cell suspension was added to each well of a 384-well plate. • 6) The experimental plate was placed in a centrifuge and centrifuged at 1000 rpm for 1 minute. • 7) The experimental plate was then incubated overnight in a cell incubator. • 8) According to the sample addition diagram of experimental plate (refer to 3.5.1), 20.0 μL of the diluted test sample was added to each well. […] The plate was incubated at 4° C. overnight. • 19) The primary antibody solution in the plate was discarded, and the plate was washed five times with PBS using a multidrop. • 20) A mixture of 25 μL of secondary antibody and DRAQ5 was added to each well, and incubated at room temperature for 1 hour. • 21) The plate was washed five times with PBS using a multidrop. • 22) The plate was washed with ddH2O twice, and patted dry. • 23) The plate was subsequently read using the Odyssey infrared imaging system. […]
The IC50 values were calculated using GraphPad Prism 7.0, a data analysis software.
This experiment evaluated the effect of compound of formula (I) on the expression of ERα protein in MCF-7, T-47D, and CAMA-1 cells. The expression levels of ERα protein were detected using the ICW assay after 4 hours of drug treatment.

In the case of `FCCCN1CC[C@H](Nc2cnc(C3=C(CC(F)(F)F)CCCc4c3ccc3[nH]nc(F)c43)cn2)C1` [Compound of formula (I)], the IC50 in experiment [1] (First experiment) came out at 0.49 nM; in experiment [1] (Mean ± SD) it was 1.55 ± 0.99 nM; in experiment [1] (Second experiment), 1.34 nM. Also, the DC50 in experiment [2] (CAMA-1 cells) was found to be 1.25 nM; in experiment [2] (MCF-7 cells), 0.235 nM; in experiment [2] (T-47D cells) it was 0.78 nM.
